Results from BindingDB's records for doi:10.1016/j.bmcl.2023.129277 (n/a, 2023).
pIC50, pKi: −log10 of the molar value.

Tests used:
[1] = Inhibition of PKD1 (unknown origin)
[2] = Inhibition of PKD1 (unknown origin) assessed as inhibition constant

pIC50 [1]: 6.68
pKi [2]: 7.19
Structure (SMILES): CN1C(=O)[C@](O)(C#Cc2cccc(-n3nc(C(N)=O)c4cccnc43)c2)[C@H]2C[C@H]21 [1-(3-(((1R,4R,5S)-4-hydroxy-2-methyl-3-oxo-2-azabicyclo[3.1.0]hexan-4-yl)ethynyl)phenyl)-1H-pyrazolo[3,4-b]pyridine-3-carboxamide]
